Source: patent publication US11382848B2, “Compounds reducing malodour perception and the use thereof” (CHEMCOM S.A., priority 2017, dated 2022)
pIC50: −log10 of the molar value.

Experiments:
[1] = target: T1, human olfactory receptor OR7D4 (Homo sapiens, UniProt Q8NG98); assay: OR7D4 luciferase gene reporter assay (antagonism of agonist-induced activation); assay type: cell-based
T1 construct: transfected with a plasmid containing CRE-luciferase and a plasmid containing OR7D4; expressed in transfected cells; host or cells: HEK293T stably expressing olfactory chaperone proteins of the RTP family
T1 sequence (Q8NG98 1-312): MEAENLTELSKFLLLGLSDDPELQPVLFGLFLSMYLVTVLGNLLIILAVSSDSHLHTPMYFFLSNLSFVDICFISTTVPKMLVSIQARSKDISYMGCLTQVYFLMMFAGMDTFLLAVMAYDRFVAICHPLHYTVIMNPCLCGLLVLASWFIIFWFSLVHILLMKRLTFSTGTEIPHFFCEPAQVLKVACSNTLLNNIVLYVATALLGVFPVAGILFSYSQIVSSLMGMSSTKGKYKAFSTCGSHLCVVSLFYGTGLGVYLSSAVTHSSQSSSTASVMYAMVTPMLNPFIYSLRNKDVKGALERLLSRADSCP
Procedure: Cells were maintained in minimal essential medium (EMEM, Lonza) containing 10% fetal bovine serum (M10). HEK293T stably expressing olfactory chaperone proteins from the RTP family as described in WO 2006/002161 (introduced here as a reference) were generated by transfecting HEK293T cells with expression vector containing the chaperone gene sequences and a resistance gene to puromycin, using Lipofectamine 2000. A recombinant cell population was selected by adding 10 μg/ml of puromycin into the culture medium. Monoclonal populations were further obtained by limit dilution procedure. Briefly, a cell suspension was diluted to contain 1 cell per ml and this dilution was dispatched in poly-D-lysine-coated 96 well plates (200 μl of dilution per well). After 5 days of culture, the presence and number of cell colonies per well was checked under a phase contrast microscope. After 5 additional days of culture, wells containing a single colony were harvested and each collected population was amplified independently.
The 5-alpha-androst-16-ene-3-one, used as an agonist of the human olfactory receptor OR7D4 and the tested molecules were diluted at a concentration of 1 mole/litre (M) into dimethyl sulfoxide (DMSO) to generate stock solutions.
For concentration-response analysis, serial dilutions of the tested molecules were prepared from stock solutions in EMEM plated into 96-well plates.
(§1) Briefly, cells were plated on poly-D-lysine-coated 96-well plates (BD Bioscience, Erembodegem-Dorp, Belgium) and transfected with a plasmid containing CRE-luciferase and a plasmid containing OR7D4. Sixteen hours after transfection, the culture medium was replaced by serum-free EMEM containing the tested ligands at a determined concentration. After four hours of incubation at 37° C. degree, cells were lysed and processed for luminescence measurement according to the manufacturer's protocols. Luminescence emission was recorded on a Spectra Max M5 reader (Molecular Devices, Sunnyvale, Calif.). Results were expressed as percentage of the response induced by 10 μM of the adenylate cyclase activator Forskolin.
The ability of the compounds of the invention to inhibit the activity of androstenone on OR7D4 receptor was assessed by the luciferase assay described above.
To determine whether a molecule antagonizes OR7D4, this compound was introduced in the incubation medium of the Luciferase assay described above at a concentration of either 316 μM, 100 μM or 31.6 μM, along with the known activator of the receptor 5α-androst-16-en-3-one at a concentration of 31.6 μM. Molecules were considered as “hits” i.e., as having an antagonist effect on the receptor, if they induced a decrease of at least 50% of the luciferase production elicited upon activation of OR7D4 by 5α-androst-16-en-3-one.
Putative antagonist molecule libraries containing compound 1 and other types of molecules were used to identify antagonist of the receptor OR7D4. The screening campaign was performed on the OR7D4 with a series of 112 putative antagonist molecules. In this screening campaign, compound 1 was identified as a hit.
The compound 1 was further confirmed as antagonist of OR7D4 by performing dose-response analysis using the luciferase assay. Different concentrations of compound 1, ranging from 31.6 nM to 1 mM were tested on HEK293 cell expressing OR7D4 and stimulated with 31.6 μM of 5α-androst-16-en-3-one.
The antagonistic property of compound 1 on OR7D4 was further confirmed by measuring the response of the OR7D4 to 5α-androsta-4,16-dien-3-one in presence of compound 1, using the luciferase assay as describe hereinabove. The observed inhibition was in the same range as the one observed when stimulating the receptor with 5α-androst-16-en-3-one.
To further explore the antagonism on OR7D4, a series of compounds structurally related to compound 1 were synthesized and assessed as antagonists of OR7D4 by dose-response analysis using the luciferase assay. […]

[2] = test system: perception of androstenone; assay: Alternative sensory test with Tedlar bags and expert panel
Procedure: The test consists, in a first step, in microinjecting androstenone (at 0.6% in ethanol), compound 1 (pure) or androstenone+compound 1 in 10 L Tedlar™ bags specially conceived for gas sampling, previously loaded with a known volume of pure air (from oil free compressor with additional charcoal filters). Than the compound of interest (EtOH solution) is injected with a high accuracy micro-syringe through a septum placed on the tap-valve.
The odour presentation device consists of a cylinder to be filled with clean air. The bag is inserted in the cylinder and connected to a sampling installation in the cylinder by means of a valve. By controlled injection of clean air into the cylinder, the interior pressure is raised and the sampling air is pressed in a controlled manner out of the sample container through the opened valve. This sampling air is transferred to the nose of the corresponding sensory odour panel member by means of a funnel. By this means, each sensory odour panel member receives an identical sample with a standardized volume flow and a constant provision time. The outlet flow rate is between 10-20 L/min (in order to avoid any mixing with ambient air before reaching the nose).
The expert panel is entering the room 15 minutes before starting the test. The basic standard test is a rating in intensity and the use of the closest chemical descriptors according to the following order of presentation:
Each assessor can smell for few seconds. A pause of min. 1 minute is considered between presentations.
The individual rating is done with a resolution of 0.5 on a scale ranging from 0 (no odour) to 5 (saturating odour).

[3] = test system: forskolin-induced, receptor-independent production of cAMP / Luciferase; assay: Forskolin control in cells not expressing the receptor (luciferase assay); assay type: cell-based; details: cells that did not express the receptor, stimulated by forskolin
Procedure: as §1

## CCCCCCC(=C\c1ccccc1)/C=C(\C)C(=O)OCC [Compound 1, ethyl (E)-4-((E)-benzylidene)-2-methyldec-2-enoate]
[1]; 31.6 nM to 1 mM compound, HEK293 cell expressing OR7D4 stimulated with 31.6 μM 5α-androst-16-en-3-one
  Luciferase activity elicited by 5α-androst-16-en-3-one, dose-response (FIG. 1): decrease of Luciferase activity
[1]; compound at 316 μM, 100 μM or 31.6 μM with 5α-androst-16-en-3-one at 31.6 μM, 112 putative antagonist molecules screened
  hit in antagonist screening (decrease of at least 50% of the luciferase production): hit
[1]; dose-response, luciferase assay, half decrease of the luciferase production obtained without antagonist, androstenone at 31.6 micromolar
  pIC50: 5.70
[1]; response of OR7D4 to 5α-androsta-4,16-dien-3-one in presence of compound
  pIC50: 5.60
[2]; Androstenone + compound 1
  typical odour of sweat of Androstenone when smelled in the presence of the compound: completely disappears
[2]; compound 1 alone
  intrinsic smell: mushroom
[2]; compound 1 alone compared with androstenone alone
  odour intensity: lower than the one of androstenone alone
[3]
  forskolin-induced production of Luciferase: not affected
